# From PubChem BioAssay (NCI)
#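 Test compounds were applied to cells in 96-well plates for 48 hours at 5 doses. TGI denotes the concentration required for complete inhibition of growth.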
# Legend:
# Experiment in all cases: inhibition of tumour cell growth, NCI panel, 48 h
# [1] = tested on: ACHN renal
# [2] = tested on: CAKI-1 renal
# [3] = tested on: EKVX NSCLC
# [4] = tested on: HOP-92 NSCLC
# [5] = tested on: HT29 colon
# [6] = tested on: NCI-H23 lung
# [7] = tested on: NCI-H522 lung
# [8] = tested on: OVCAR-3 ovarian
# [9] = tested on: RPMI-8226 leukemia
# [10] = tested on: SK-MEL-28 melanoma
# [11] = tested on: PC-3 prostate
SMILES,TGI [1],TGI [2],TGI [3],TGI [4],TGI [5],TGI [6],TGI [7],TGI [8],TGI [9],TGI [10],TGI [11]
CCN(CC)c1ccc2c(c1)Oc1ccc(N(CC)CC)cc1C21Oc2ccccc2-c2c1c1ccccc1n2CC (centres undefined),> 100 µM,> 100 µM,> 100 µM,2.12 µM,> 100 µM,8.01 µM,5.06 µM,> 100 µM,> 100 µM,> 100 µM,
C/C(=C\CBr)CCC(Br)C(C)(C)Cl (centres undefined),> 100 µM,> 100 µM,,> 100 µM,> 100 µM,> 100 µM,> 100 µM,,> 100 µM,> 100 µM,
C[C@]12C[C@@H](OC(=O)[C@]1(C)O)[C@@H]([C@]1(O)CC[C@H]3[C@@H]4C[C@H]5O[C@]56C[C@H]5O[C@H]5C(=O)[C@]6(C)[C@H]4CC[C@@]31C)C2,> 50 µM,> 50 µM,> 50 µM,> 50 µM,> 50 µM,> 50 µM,> 50 µM,,> 50 µM,> 50 µM,> 50 µM
CC1=NC(=Cc2ccccc2O)C(=O)N1n1c(-c2ccccc2)nc2ccccc2c1=O,> 100 µM,,> 100 µM,> 100 µM,> 100 µM,> 100 µM,> 100 µM,> 100 µM,> 100 µM,> 100 µM,> 100 µM
CN(C)C(=NCc1ccccc1)NC#N,> 100 µM,> 100 µM,> 100 µM,> 100 µM,> 100 µM,> 100 µM,> 100 µM,> 100 µM,,> 100 µM,
CCc1c(C)c(C#N)c(=S)n(C2OC(COC(C)=O)C(OC(C)=O)C(OC(C)=O)C2OC(C)=O)c1-c1ccccc1 (centres undefined),> 31.6 µM,> 100 µM,> 100 µM,> 31.6 µM,> 31.6 µM,> 31.6 µM,> 31.6 µM,> 31.6 µM,> 100 µM,> 31.6 µM,
Oc1ccc2cc(Br)ccc2c1-c1c(O)ccc2ccc(Br)cc12,28 µM,34 µM,,,10.1 µM,29.1 µM,29.9 µM,27.8 µM,,33.5 µM,25.3 µM
CCOC(=O)/C(C#N)=C(O)/C(=C\c1ccc(Br)cc1)NC(=O)c1ccccc1,> 100 µM,> 100 µM,> 100 µM,> 100 µM,> 100 µM,> 100 µM,,> 100 µM,59.6 µM,> 100 µM,
COc1ccc(/C=N/n2c(C)n[nH]c2=O)c(OC)c1,> 100 µM,> 100 µM,> 100 µM,,> 100 µM,> 100 µM,,> 100 µM,> 100 µM,> 100 µM,> 100 µM
N[C@H](C(=O)O)[C@@H]1CC(Br)=NO1,> 100 µM,> 100 µM,> 100 µM,> 100 µM,> 100 µM,> 100 µM,> 100 µM,> 100 µM,,> 100 µM,> 100 µM
Nc1ccc2c(c1)nc1n2C(c2c(F)cccc2F)SC1 (centres undefined),> 100 µM,> 100 µM,> 100 µM,,> 100 µM,> 100 µM,> 100 µM,> 100 µM,> 100 µM,> 100 µM,> 100 µM
Cc1nc2ccc(C(F)(F)F)cc2nc1NCc1ccc(Cl)c(Cl)c1,28 µM,33.8 µM,27.4 µM,,28.2 µM,30.9 µM,28.8 µM,26.3 µM,38.9 µM,33.9 µM,25.6 µM
CCOC(=O)CNC(=O)C(CSC(=O)N(O)c1ccc(Cl)cc1)NC(=O)CCC(N)C(=O)OCC (centres undefined),> 50 µM,> 50 µM,> 50 µM,> 50 µM,> 50 µM,> 50 µM,,> 50 µM,46 µM,> 50 µM,> 50 µM
O=C1Cc2c([nH]c3ccc(Br)cc23)-c2cc(O)c(O)cc2N1,> 100 µM,> 100 µM,> 100 µM,> 100 µM,,> 100 µM,> 100 µM,> 100 µM,> 100 µM,> 100 µM,> 100 µM
O=c1[nH]nc(Cc2ccccc2)n1C1CCCC1,> 100 µM,> 100 µM,> 100 µM,,> 100 µM,> 100 µM,> 100 µM,> 100 µM,> 100 µM,> 100 µM,> 100 µM
CCCCCCCC1(N=[N+]=[N-])C(=O)Nc2ccccc2C1=O (centres undefined),28.6 µM,27.8 µM,,27.2 µM,56.8 µM,40.5 µM,,29.6 µM,> 100 µM,30.7 µM,24.1 µM
CCOP1(=O)C=C(C)C(Cl)=C(C)C1 (centres undefined),72.2 µM,,> 100 µM,68.3 µM,79.6 µM,46.2 µM,27.8 µM,> 100 µM,62.6 µM,56.7 µM,
CC(=O)C1=CN=C2C(=O)N(c3ccccc3)N(C)C12C (centres undefined),> 100 µM,> 100 µM,> 100 µM,> 100 µM,,> 100 µM,> 100 µM,> 100 µM,> 100 µM,,> 100 µM
COC(=O)[C@@]1(C(C)CC(=O)O)CCCCC1=O (some centres undefined),> 100 µM,> 100 µM,> 100 µM,> 100 µM,> 100 µM,> 100 µM,> 100 µM,> 100 µM,82 µM,> 100 µM,
CC1CN=C(N(Cc2ccccc2)C(=O)Nc2ccc(Cl)c(Cl)c2)S1 (centres undefined),75 µM,> 100 µM,> 100 µM,54.5 µM,> 100 µM,> 100 µM,,> 100 µM,> 100 µM,68.8 µM,> 100 µM
Oc1[nH]c2ccccc2c1N=NC(=S)Nc1ccccc1Cl,17.2 µM,8.78 µM,77.9 µM,56.2 µM,21.9 µM,33.5 µM,> 100 µM,37.6 µM,,75.6 µM,> 100 µM
CCCCc1ccc(-n2sc3ncc(C)cc3c2=O)cc1,> 100 µM,,46.9 µM,87.5 µM,,> 100 µM,40.6 µM,47.8 µM,99 µM,> 100 µM,28.2 µM
